# According to ChEMBL document CHEMBL5625252, “Synthesis of peptidomimetics as antibiotic adjuvants for combination with aztreonam to combat MDR Pseudomonas aeruginosa” (Eur J Med Chem, 2023):
# Activity calls are given as the source filed them. The rule behind the calls is not given here. Where a SMILES comes first, the peptide text is derived from it. The star is where a group is joined. βNA = c1ccc2cc(N*)ccc2c1
# Experiments:
# [1] = system: Pseudomonas aeruginosa; assay: Synergistic antibacterial activity against Pseudomonas aeruginosa 21-2 assessed as fractional inhibitory concentration index at 128 ug/ml incubated for 18 hrs in presence of aztreonam by checkerboard method; type: functional; conditions: dose 128 µg/ml
# [2] = system: Pseudomonas aeruginosa; assay: Synergistic antibacterial activity against Pseudomonas aeruginosa 16-11 assessed as fractional inhibitory concentration index in CAMH broth medium supplemented with 0.41 to 0.51 mM Mg2+ in presence of aztreonam by checkerboard assay; type: functional
# [3] = system: Pseudomonas aeruginosa; assay: Antibacterial activity against Pseudomonas aeruginosa 21-2 assessed as inhibition of bacterial growth incubated for 18 hrs by agar dilution method; type: functional
# [4] = system: Pseudomonas aeruginosa; assay: Antibacterial activity against Pseudomonas aeruginosa 23-Y417 assessed as inhibition of bacterial growth incubated for 18 hrs by agar dilution method; type: functional
# [5] = system: Pseudomonas aeruginosa; assay: Synergistic antibacterial activity against Pseudomonas aeruginosa PAO1 assessed as fractional inhibitory concentration index in CAMH broth medium supplemented with 20.99 to 21.09 mM Mg2+ in presence of aztreonam by checkerboard assay; type: functional
# [6] = system: Pseudomonas aeruginosa; assay: Synergistic antibacterial activity against Pseudomonas aeruginosa 13-17 assessed as fractional inhibitory concentration index at 128 ug/ml incubated for 18 hrs in presence of aztreonam by checkerboard method; type: functional; conditions: dose 128 µg/ml
# [7] = system: Pseudomonas aeruginosa; assay: Synergistic antibacterial activity against Pseudomonas aeruginosa 23-Y122 assessed as aztreonam MIC at 128 ug/ml incubated for 18 hrs by checkerboard method; type: functional; conditions: dose 128 µg/ml
# [8] = system: Pseudomonas aeruginosa; assay: Synergistic antibacterial activity against Pseudomonas aeruginosa PAO1 assessed as fractional inhibitory concentration index incubated for 18 hrs in presence of aztreonam by checkerboard method; type: functional
# [9] = system: Pseudomonas aeruginosa; assay: Synergistic antibacterial activity against Pseudomonas aeruginosa 12-1 assessed as aztreonam MIC at 128 ug/ml incubated for 18 hrs by checkerboard method; type: functional; conditions: dose 128 µg/ml
# [10] = system: Pseudomonas aeruginosa; assay: Synergistic antibacterial activity against Pseudomonas aeruginosa 16-2 assessed as fractional inhibitory concentration index at 128 ug/ml incubated for 18 hrs in presence of aztreonam by checkerboard method; type: functional; conditions: dose 128 µg/ml
# [11] = system: Pseudomonas aeruginosa; assay: Synergistic antibacterial activity against Pseudomonas aeruginosa 23-Y372 assessed as fractional inhibitory concentration index at 128 ug/ml incubated for 18 hrs in presence of aztreonam by checkerboard method; type: functional; conditions: dose 128 µg/ml
# [12] = system: Pseudomonas aeruginosa; assay: Synergistic antibacterial activity against Pseudomonas aeruginosa PAO1 in CAMH broth medium supplemented with 20.99 to 21.09 mM Mg2+ in presence of aztreonam by checkerboard assay; type: functional
# [13] = system: Pseudomonas aeruginosa; assay: Synergistic antibacterial activity against Pseudomonas aeruginosa 16-11 assessed as fractional inhibitory concentration index in CAMH broth medium supplemented with 20.99 to 21.09 mM Mg2+ in presence of aztreonam by checkerboard assay; type: functional
# [14] = system: Pseudomonas aeruginosa; assay: Synergistic antibacterial activity against Pseudomonas aeruginosa 21-8 assessed as fractional inhibitory concentration index at 128 ug/ml incubated for 18 hrs in presence of aztreonam by checkerboard method; type: functional; conditions: dose 128 µg/ml
# [15] = system: Pseudomonas aeruginosa; assay: Synergistic antibacterial activity against Pseudomonas aeruginosa 23-Y364 assessed as fractional inhibitory concentration index at 128 ug/ml incubated for 18 hrs in presence of aztreonam by checkerboard method; type: functional; conditions: dose 128 µg/ml
# [16] = system: Pseudomonas aeruginosa; assay: Synergistic antibacterial activity against Pseudomonas aeruginosa PAO1 in CAMH broth medium supplemented with 0.41 to 0.51 mM Mg2+ in presence of aztreonam by checkerboard assay; type: functional
# [17] = system: Pseudomonas aeruginosa; assay: Antibacterial activity against Pseudomonas aeruginosa PAO1 in CAMH broth medium supplemented with 0.41 to 0.51 mM Mg2+ by checkerboard assay; type: functional
# [18] = system: Pseudomonas aeruginosa; assay: Antibacterial activity against Pseudomonas aeruginosa 23-Y364 assessed as inhibition of bacterial growth incubated for 18 hrs by agar dilution method; type: functional
# [19] = system: Pseudomonas aeruginosa; assay: Synergistic antibacterial activity against Pseudomonas aeruginosa 23-Y417 assessed as aztreonam MIC at 128 ug/ml incubated for 18 hrs by checkerboard method; type: functional; conditions: dose 128 µg/ml
# [20] = system: Pseudomonas aeruginosa; assay: Synergistic antibacterial activity against Pseudomonas aeruginosa 23-Y364 assessed as aztreonam MIC at 128 ug/ml incubated for 18 hrs by checkerboard method; type: functional; conditions: dose 128 µg/ml
# [21] = system: Pseudomonas aeruginosa; assay: Antibacterial activity against Pseudomonas aeruginosa 16-2 assessed as decrease in log10 CFU at 128 ug/ml measured after 24 hrs in presence of aztreonam by time-kill assay; type: functional; conditions: dose 128 µg/ml
# [22] = system: Pseudomonas aeruginosa; assay: Synergistic antibacterial activity against Pseudomonas aeruginosa 13-35 assessed as aztreonam MIC at 128 ug/ml incubated for 18 hrs by checkerboard method; type: functional; conditions: dose 128 µg/ml
# [23] = system: Pseudomonas aeruginosa; assay: Synergistic antibacterial activity against Pseudomonas aeruginosa 23-Y511 assessed as aztreonam MIC at 128 ug/ml incubated for 18 hrs by checkerboard method; type: functional; conditions: dose 128 µg/ml
# [24] = system: Pseudomonas aeruginosa; assay: Antibacterial activity against Pseudomonas aeruginosa 13-3 assessed as inhibition of bacterial growth incubated for 18 hrs by agar dilution method; type: functional
# [25] = system: Pseudomonas aeruginosa; assay: Synergistic antibacterial activity against Pseudomonas aeruginosa 13-35 assessed as aztreonam MIC in CAMH broth medium supplemented with 0.41 to 0.51 mM Mg2+ by checkerboard assay; type: functional
# [26] = system: Pseudomonas aeruginosa; assay: Synergistic antibacterial activity against Pseudomonas aeruginosa 12-1 assessed as aztreonam MIC in CAMH broth medium supplemented with 0.41 to 0.51 mM Mg2+ by checkerboard assay; type: functional
# [27] = system: Pseudomonas aeruginosa; assay: Antibacterial activity against Pseudomonas aeruginosa 16-2 assessed as inhibition of bacterial growth incubated for 18 hrs by agar dilution method; type: functional
# [28] = system: Pseudomonas aeruginosa; assay: Antibacterial activity against Pseudomonas aeruginosa 23-Y372 assessed as inhibition of bacterial growth incubated for 18 hrs by agar dilution method; type: functional
# [29] = system: Pseudomonas aeruginosa; assay: Antibacterial activity against Pseudomonas aeruginosa PAO1 infected in Galleria mellonella assessed as increase in larvae survival at 100 mg/kg after 12 hrs of innoculation; type: functional, organism-based
# [30] = system: Pseudomonas aeruginosa; assay: Antibacterial activity against Pseudomonas aeruginosa 16-11 assessed as inhibition of bacterial growth incubated for 18 hrs by agar dilution method; type: functional
# [31] = system: Pseudomonas aeruginosa; assay: Antibacterial activity against Pseudomonas aeruginosa 13-35 assessed as inhibition of bacterial growth incubated for 18 hrs by agar dilution method; type: functional
# [32] = system: Pseudomonas aeruginosa; assay: Synergistic antibacterial activity against Pseudomonas aeruginosa 19-55 assessed as aztreonam MIC at 128 ug/ml incubated for 18 hrs by checkerboard method; type: functional; conditions: dose 128 µg/ml
# [33] = system: Pseudomonas aeruginosa; assay: Antibacterial activity against Pseudomonas aeruginosa PAO1 at 128 ug/ml measured upto 24 hrs in presence of aztreonam by time-kill assay; type: functional, organism-based; conditions: dose 128.0 µg/ml
# [34] = system: Pseudomonas aeruginosa; assay: Synergistic antibacterial activity against Pseudomonas aeruginosa PAO1 assessed as aztreonam MIC in CAMH broth medium supplemented with 0.41 to 0.51 mM Mg2+ by checkerboard assay; type: functional
# [35] = system: Pseudomonas aeruginosa; assay: Antibacterial activity against Pseudomonas aeruginosa 12-1 assessed as inhibition of bacterial growth incubated for 18 hrs by agar dilution method; type: functional
# [36] = system: Pseudomonas aeruginosa; assay: Synergistic antibacterial activity against Pseudomonas aeruginosa 13-17 assessed as aztreonam MIC at 128 ug/ml incubated for 18 hrs by checkerboard method; type: functional; conditions: dose 128 µg/ml
# [37] = system: Pseudomonas aeruginosa; assay: Synergistic antibacterial activity against Pseudomonas aeruginosa 16-11 assessed as aztreonam MIC in CAMH broth medium supplemented with 20.99 to 21.09 mM Mg2+ by checkerboard assay; type: functional
# [38] = system: Pseudomonas aeruginosa; assay: Antibacterial activity against Pseudomonas aeruginosa 21-7 assessed as inhibition of bacterial growth incubated for 18 hrs by agar dilution method; type: functional
# [39] = system: Pseudomonas aeruginosa; assay: Synergistic antibacterial activity against Pseudomonas aeruginosa 23-Y539 assessed as aztreonam MIC at 128 ug/ml incubated for 18 hrs by checkerboard method; type: functional; conditions: dose 128 µg/ml
compound,measurement,setting,value
N=C(N)NCCC[C@H](NC(=O)[C@@H](N)Cc1ccccc1)C(=O)Nc1ccc2ccccc2c1 [PABETAN] (H-Phe-Arg-βNA),fractional inhibitory concentration index (FICI),[1],0.5
same,fractional inhibitory concentration index (FICI),[2],1.25
same,MIC,[3],512 µg/mL
same,MIC,[4]; read-out: MIC,512 µg/mL
same,fractional inhibitory concentration index (FICI),[5],0.5
same,fractional inhibitory concentration index (FICI),[6],0.313
same,MIC,[7],16 µg/mL
same,fractional inhibitory concentration index (FICI),[8],0.375
same,MIC,[9],8 µg/mL
same,fractional inhibitory concentration index (FICI),[10],0.5
same,fractional inhibitory concentration index (FICI),[11],0.375
same,MIC,[12],128 µg/mL
same,fractional inhibitory concentration index (FICI),[13],1.25
same,fractional inhibitory concentration index (FICI),[14],0.5
same,fractional inhibitory concentration index (FICI),[15],0.281
same,MIC,[16],128 µg/mL
same,MIC,[17],512 µg/mL
same,MIC,[18],512 µg/mL
NCCC[C@H](NC(=O)C[C@@H](N)Cc1ccccc1)C(=O)Nc1ccc2ccccc2c1,MIC,[19],8 µg/mL
same,fractional inhibitory concentration index (FICI),[1],<0.5
same,MIC,[20],8 µg/mL
same,Activity,[21],>2 log10CFU/ml
same,MIC,[22],4 µg/mL
same,fractional inhibitory concentration index (FICI),[2],1.25
same,MIC,[3],> 512 µg/mL
same,MIC,[4],> 512 µg/mL
same,MIC,[23],16 µg/mL
same,fractional inhibitory concentration index (FICI),[5],0.375
same,MIC,[24],512 µg/mL
same,fractional inhibitory concentration index (FICI),[6],0.313
same,MIC,[25],4 µg/mL
same,MIC,[26],16 µg/mL
same,MIC,[27],513 µg/mL
same,MIC,[28],512 µg/mL
same,MIC,[7],32 µg/mL
same,Activity,[29],inactive
same,fractional inhibitory concentration index (FICI),[8],0.375
same,MIC,[30],512 µg/mL
same,MIC,[31],512 µg/mL
same,MIC,[9],16 µg/mL
same,MIC,[32],8 µg/mL
same,Activity,[33],Active
same,MIC,[34],2 µg/mL
same,fractional inhibitory concentration index (FICI),[10],0.5
same,fractional inhibitory concentration index (FICI),[11],0.375
same,MIC,[35],512 µg/mL
same,MIC,[36],4 µg/mL
same,MIC,[12],128 µg/mL
same,MIC,[37],8 µg/mL
same,fractional inhibitory concentration index (FICI),[13],1.25
same,fractional inhibitory concentration index (FICI),[14],<0.5
same,fractional inhibitory concentration index (FICI),[15],<0.281
same,MIC,[16],128 µg/mL
same,MIC,[38],512 µg/mL
same,MIC,[17],512 µg/mL
same,MIC,[39],4 µg/mL
same,MIC,[18],> 512 µg/mL
